One data set has as its target T1, CYP1A2 (Homo sapiens, UniProt P05177).
T1 sequence (P05177 1-516): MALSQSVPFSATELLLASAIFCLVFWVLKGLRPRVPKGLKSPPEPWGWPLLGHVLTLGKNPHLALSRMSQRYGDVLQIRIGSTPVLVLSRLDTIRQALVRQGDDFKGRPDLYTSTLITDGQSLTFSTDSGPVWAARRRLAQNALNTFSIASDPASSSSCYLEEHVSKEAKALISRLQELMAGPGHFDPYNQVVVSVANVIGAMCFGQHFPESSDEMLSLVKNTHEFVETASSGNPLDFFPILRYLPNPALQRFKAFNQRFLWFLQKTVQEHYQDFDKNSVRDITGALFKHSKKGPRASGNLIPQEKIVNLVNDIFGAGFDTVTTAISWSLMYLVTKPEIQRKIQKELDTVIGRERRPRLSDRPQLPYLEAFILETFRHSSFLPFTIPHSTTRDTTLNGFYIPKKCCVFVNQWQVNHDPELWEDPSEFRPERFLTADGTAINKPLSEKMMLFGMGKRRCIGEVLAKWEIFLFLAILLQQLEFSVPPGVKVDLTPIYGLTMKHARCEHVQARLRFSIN
The data set is described as follows: in vitro. Conditions: both, microsomes, pH 7.4.

A further data set deals with T2, CYP2C8 (Homo sapiens, UniProt P10632).
T2 sequence (P10632 1-490): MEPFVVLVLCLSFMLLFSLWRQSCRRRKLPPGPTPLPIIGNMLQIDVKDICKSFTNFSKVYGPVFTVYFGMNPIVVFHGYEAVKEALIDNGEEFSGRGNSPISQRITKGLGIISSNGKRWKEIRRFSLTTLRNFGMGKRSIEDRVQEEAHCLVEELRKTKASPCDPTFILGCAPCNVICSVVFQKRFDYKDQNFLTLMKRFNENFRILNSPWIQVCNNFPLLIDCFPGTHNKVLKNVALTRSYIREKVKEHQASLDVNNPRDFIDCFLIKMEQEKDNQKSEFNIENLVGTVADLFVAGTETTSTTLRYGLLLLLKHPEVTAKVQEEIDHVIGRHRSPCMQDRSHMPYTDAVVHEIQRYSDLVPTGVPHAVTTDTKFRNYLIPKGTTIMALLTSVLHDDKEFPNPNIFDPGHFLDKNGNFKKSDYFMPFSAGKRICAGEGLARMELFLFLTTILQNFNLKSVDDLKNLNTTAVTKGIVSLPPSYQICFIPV
The data set is described as follows: in vitro. The note with it: both, pH 7.4.

The next data set addresses CYP2D6 (Homo sapiens, UniProt P10635). The data set is described as follows: in vitro. The note with it: both, pH 7.4.
Data set [1] in a line: Stability in components of human blood. Conditions: 0.5 mM, 37° C., 0-120 min. Type of data set: in vitro ADME. The method, then:
FIG. 3A. […] Compound I-19 in components of human blood. Red blood cells and plasma were isolated from whole blood. […] Values represent mean+SEM of n=3 separate experiments.
FIG. 3B. Stability of Compound I-4 in components of human blood. Red blood cells and plasma were isolated from whole blood. […] Values represent mean+SEM of n=3 separate experiments.
Human and rat blood were centrifuged to separate out red blood cells at 1174×g for 15 min. The upper plasma level was aspirated with a micropipette and placed in a bleach solution for disposal. The RBC pellet was resuspended in sterile isotonic saline. The pellet was gently resuspended by rocking the tube. The sample was then centrifuged again to collect the RBC pellet and then resuspended and washed one more time following the same procedure. A total of three was done. Following the last wash and centrifugation, the RBCs were resuspended with PBS; and mixed by inversion. Aliquots of the resuspended and washed RBCs were then placed into 4 reaction tubes. These tubes were centrifuged to collect the RBCs. The fluid level was marked on each tube, then the supernatant was aspirated off and the cells resuspended with room temperature PBS pH 7.4 to the original mark. An aliquot of the RBC suspension was added to four sterile tubes containing PBS pH 7.4 at room temperature. […]

Data set [2] is described as follows: Plasma protein binding by equilibrium dialysis. Type of data set: in vitro ADME, mouse. Conditions: for % Recovery / % Unbound: mouse plasma. Here is the method: Samples of spiked plasma and blank buffer (Dulbecco's phosphate-buffered saline, DPBS) and spiked brain homogenate and blank DPBS added to opposing sides of a dialysis membrane were collected from triplicate equilibrium dialysis chambers prior to (t=0) and following 1, 2, 4 and 6 hours of incubation at 37° C. […] The LC-MS/MS method(s) for analytes (Compound I-19, Compound A and Compound B) was cross-qualified for the analysis of the DPBS samples.
A secondary stock solution of 200 μM (74.2 ug/mL) will be prepared in DMSO. This secondary stock solution will then be diluted 100-fold to 2 μM ([…]) with male CD-1 mouse plasma and brain homogenate (1:2 v/v brain:Dulbecco's phosphate buffered saline, pH 7-7.2) or buffer (DPBS).
To 2.97 mL aliquots of thawed mouse plasma or brain homogenate warmed to 37° C., 30 ul aliquots of the secondary stock solution of the test compound will be added for final concentrations of 2 μM (0.742 ug/mL). An appropriate volume of warmed buffer (DPBS) will also be spiked with the test compound at a concentration of 2 μM ([…]). Triplicate aliquots (50 μL) of each spiked plasma, brain homogenate and buffer solution will be collected prior to dialysis into labeled 1.5 mL polypropylene tubes and then stored at approximately −80° C. until bioanalysis.
Equilibrium dialysis will be performed in a 96-well Teflon dialysis unit (HTDialysis, Gales Ferry, CT). Each well of the unit consists of two chambers separated by a vertically aligned dialysis membrane (regenerated cellulose) with a molecular weight cut-off of 12-14 KDa. The equilibrium dialysis membranes will first be presoaked in deionized water for 30 min, then soaked in 20% ethanol for 20 min, followed by rinsing twice with deionized water.
The equilibrium dialysis apparatus will be assembled according to the manufacturer's directions. One chamber of each well will be immediately filled with 150 μL of blank buffer (to prevent membrane dehydration). Aliquots (150 μL) of spiked plasma, spiked brain homogenate and spiked buffer will then be added to the opposing chamber in each well. Three wells per time point per matrix will be used. The top of the plate will be sealed with an adhesive sealing film to prevent evaporation and maintain constant pH during incubation.
The dialysis apparatus will be incubated at 37° C. in an orbital shaker/incubator (Lab-Line Enviro Shaker) set at 75 rpm.
Following 1, 2, 4 and 6 hours of incubation, samples from each plasma, brain homogenate and buffer compartment will be collected and the sample volume will be documented.

[3] abbreviates: dialysis time 1 h, 2 μM, 37° C.
[4] abbreviates: dialysis time 2 h, 2 μM, 37° C.
Where [5] appears, read: dialysis time 4 h, 2 μM, 37° C.
Setting [6] is: dialysis time 6 h, 2 μM, 37° C.

Sequence of CYP2D6 (P10635 whole entry): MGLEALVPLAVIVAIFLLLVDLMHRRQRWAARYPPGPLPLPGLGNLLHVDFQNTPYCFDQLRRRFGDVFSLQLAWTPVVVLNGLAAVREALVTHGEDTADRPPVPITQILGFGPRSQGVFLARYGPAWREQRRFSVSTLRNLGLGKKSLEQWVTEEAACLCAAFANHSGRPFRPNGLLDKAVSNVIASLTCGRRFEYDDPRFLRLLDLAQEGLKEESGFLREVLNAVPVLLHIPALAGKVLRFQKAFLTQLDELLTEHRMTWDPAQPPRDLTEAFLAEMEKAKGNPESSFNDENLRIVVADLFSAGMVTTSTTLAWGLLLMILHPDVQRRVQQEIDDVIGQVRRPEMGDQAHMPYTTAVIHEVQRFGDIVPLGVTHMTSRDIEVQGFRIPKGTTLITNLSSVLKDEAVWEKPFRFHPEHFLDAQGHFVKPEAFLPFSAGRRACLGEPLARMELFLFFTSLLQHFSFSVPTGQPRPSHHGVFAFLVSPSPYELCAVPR

`OC1(c2ccc(Cl)cc2)c2ccccc2C2=NCCN21` (stereo not shown) [Compound A, 5-(4-chlorophenyl)-2,3-dihydroimidazo[1,2-b]isoindol-5-ol, reference compound] gave an inhibition at 50 µM against CYP1A2 of 13.7%. Further, the inhibition at 10 µM worked out at 48.9% against CYP2C8 and 70.8% on CYP2D6.

Turning to `Clc1ccc(C2(OCC3OCCO3)c3ccccc3C3=NCCN32)cc1` (stereo not shown) [Compound I-19], the “% parent compound remaining” value in data set [1] (human red blood cells) and in data set [1] (human whole blood) was “time-dependent decrease in the amount of parent compound present” in each case. Also, the “% unbound in plasma” value in data set [2] (2 μM, 6 hours of dialysis, 37° C.) was 3.72±0.564%. The “fraction unbound to plasma” value in data set [2] (2 μM, equilibrium dialysis) amounted to 0.0372. Further, in data set [2] (6 hours of dialysis), the “% recovery, plasma” value was determined as 57.1±0.567%. In addition, the “% Recovery” value in data set [2] (setting [3]) is given as 87.9 ± 3.05%; in data set [2] (setting [4]), 80.1 ± 2.93%; in data set [2] (setting [5]) it was 67.6 ± 3.41%; in data set [2] (setting [6]) it was 57.1 ± 0.567%. In addition, the “% Unbound” value in data set [2] (setting [3]) was determined as 1.43%; in data set [2] (setting [4]), 1.91 ± 0.158%; in data set [2] (setting [5]) it was 3.20 ± 0.700%; in data set [2] (setting [6]), 3.72 ± 0.564%.

(Values after patent US20250108038A1 (priority 2023, published 2025).)
